Structures can show the parent of a compound that is named as a salt.

For orientation: IC50 means the midpoint of a concentration-inhibition curve.

The target of one assay is Bcl-2 protein (Homo sapiens (Human), UniProt P10415). As to the kind of experiment: Inhibition of Bcl-2 by the fluorescence polarisation technique. The format is binding. As to conditions: fluorescence polarisation test; concentration that inhibits fluorescence polarisation by 50%; read-out: IC50 (nM) Bcl-2 FP. How it is done: The fluorescence polarisation tests were carried out on microplates (384 wells). […] After incubation for 2 hours, the fluorescence polarisation is measured.
(In general: In fluorescence polarisation assays a small probe gives low polarisation when free and higher when bound to something large.)

The subject of assay [1] is RS4;11 leukaemia tumour line. Description: In vitro cytotoxicity (Microculture Tetrazolium Assay, 48 hours). The format is cell-based. Conditions: Homo sapiens, RS4;11 cells, 48 hours exposure, MTT, concentration that inhibits cell viability by 50%, read-out: IC50 (nM) MTT RS4. How it is done: The cytotoxicity studies were carried out on the RS4;11 leukaemia tumour line.
The cells are distributed onto microplates and exposed to the test compounds for 48 hours.

Chain of Bcl-2 protein (P10415 whole entry): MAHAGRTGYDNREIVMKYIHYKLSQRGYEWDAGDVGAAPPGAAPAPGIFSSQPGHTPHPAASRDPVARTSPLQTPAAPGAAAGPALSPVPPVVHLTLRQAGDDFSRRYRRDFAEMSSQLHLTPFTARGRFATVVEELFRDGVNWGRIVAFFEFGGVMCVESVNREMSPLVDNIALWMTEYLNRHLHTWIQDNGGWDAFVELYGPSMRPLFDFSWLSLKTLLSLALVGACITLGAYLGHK

As to `COc1ccc(N(C(=O)c2cc(-c3cc(Cl)ccc3C(=O)N3Cc4ccccc4C[C@H]3CN3CCOCC3)n3c2CCCC3)c2ccc(O)cc2)cc1C(F)(F)F` [Example 53, 3-{5-Chloro-2-[((3S)-3-(4-morpholinylmethyl)-3,4-dihydro-2(1H)-isoquinolinyl)carbonyl]phenyl}-N-(4-hydroxyphenyl)-N-[4-methoxy-3-(trifluoro-methyl)phenyl]-5,6,7,8-tetrahydro-1-indolizine carboxamide hydrochloride], the IC50 at Bcl-2 protein amounted to 180 nM; in assay [1], 138 nM.
In the same order, the values of `CSc1ccc(N(C(=O)c2cc(-c3cc(Cl)ccc3C(=O)N3Cc4ccccc4C[C@H]3CN3CCOCC3)n3c2CCCC3)c2ccc(O)cc2)cc1C(F)(F)F` [Example 54, 3-{5-Chloro-2-[((3S)-3-(4-morpholinylmethyl)-3,4-dihydro-2(1H)-isoquinolinyl)carbonyl]phenyl}-N-(4-hydroxyphenyl)-N-[4-(methylsulphanyl)-3-(trifluoromethyl)phenyl]-5,6,7,8-tetrahydro-1-indolizine carboxamide hydrochloride] are 180 nM and 106 nM.
In the same order, the values of `Cn1ccc2cc(N(C(=O)c3cc(-c4cc(Cl)ccc4C(=O)N4Cc5ccccc5C[C@H]4CN4CCOCC4)n4c3CCCC4)c3ccc(O)c(F)c3)ccc21` [Example 55, 3-{5-Chloro-2-[((3S)-3-(4-morpholinylmethyl)-3,4-dihydro-2(1H)-isoquinolinyl)carbonyl]phenyl}-N-(3-fluoro-4-hydroxyphenyl)-N-(1-methyl-1H-indol-5-yl)-5,6,7,8-tetrahydro-1-indolizine carboxamide hydrochloride] are 34 nM and 19.4 nM.
As to `CN1CCN(C[C@@H]2Cc3ccccc3CN2C(=O)c2cc3c(cc2-c2cc(C(=O)N(c4ccc(O)cc4)c4ccc5c(ccn5C)c4)c4ccccn24)OCO3)CC1` [Example 57, N-(4-Hydroxyphenyl)-N-(1-methyl-1H-indol-5-yl)-3-{6-[((3S)-3-[(4-methyl-1-piperazinyl)methyl]-3,4-dihydro-2(1H)-isoquinolinyl)carbonyl]-1,3-benzodioxol-5-yl}-1-indolizine carboxamide bis(hydrochloride)], the figures for the IC50 (on Bcl-2 protein; in assay [1]) were 12 nM and 8.62 nM, respectively.
As for `CCn1ccc2cc(N(C(=O)c3cc(-c4cc5c(cc4C(=O)N4Cc6ccccc6C[C@H]4CN4CCOCC4)OCO5)n4ccccc34)c3ccc(O)cc3)ccc21` [Example 60, N-(1-Ethyl-1H-indol-5-yl)-N-(4-hydroxyphenyl)-3-{6-[((3S)-3-(4-morpholinylmethyl)-3,4-dihydro-2(1H)-isoquinolinyl)carbonyl]-1,3-benzodioxol-5-yl}-1-indolizine carboxamide hydrochloride], the half-maximal inhibitory concentration (IC50) amounted to 19 nM on Bcl-2 protein and 11.7 nM in assay [1].
On to `CN1CCc2cc(N(C(=O)c3cc(-c4cc5c(cc4C(=O)N4Cc6ccccc6C[C@H]4CN4CCOCC4)OCO5)n4ccccc34)c3ccc(O)cc3)ccc21` [Example 61, N-(4-Hydroxyphenyl)-N-(1-methyl-2,3-dihydro-1H-indol-5-yl)-3-{6-[((3S)-3-(4-morpholinylmethyl)-3,4-dihydro-2(1H)-isoquinolinyl)carbonyl]-1,3-benzodioxol-5-yl}-1-indolizine carboxamide hydrochloride], for which the IC50 on Bcl-2 protein amounted to 22 nM; in assay [1], 14.5 nM.
Consider `CC(C)n1ccc2cc(N(C(=O)c3cc(-c4cc5c(cc4C(=O)N4Cc6ccccc6C[C@H]4CN4CCOCC4)OCO5)n4ccccc34)c3ccc(O)cc3)ccc21` [Example 62, N-(4-Hydroxyphenyl)-N-(1-isopropyl-1H-indol-5-yl)-3-{6-[((3S)-3-(4-morpholinylmethyl)-3,4-dihydro-2(1H)-isoquinolinyl)carbonyl]-1,3-benzodioxol-5-yl}-1-indolizine carboxamide hydrochloride], for which the values for the IC50 (on Bcl-2 protein; in assay [1]) were 22 nM and 19.3 nM, respectively.
For `CCN1CCc2cc(N(C(=O)c3cc(-c4cc5c(cc4C(=O)N4Cc6ccccc6C[C@H]4CN4CCOCC4)OCO5)n4ccccc34)c3ccc(O)cc3)ccc21` [Example 63, N-(1-Ethyl-2,3-dihydro-1H-indol-5-yl)-N-(4-hydroxyphenyl)-3-{6-[((3S)-3-(4-morpholinylmethyl)-3,4-dihydro-2(1H)-isoquinolinyl)carbonyl]-1,3-benzodioxol-5-yl}-1-indolizine carboxamide hydrochloride], the IC50 amounted to 21 nM on Bcl-2 protein and 18.8 nM in assay [1].
In the same order, the values of `CC(C)N1CCc2cc(N(C(=O)c3cc(-c4cc5c(cc4C(=O)N4Cc6ccccc6C[C@H]4CN4CCOCC4)OCO5)n4ccccc34)c3ccc(O)cc3)ccc21` [Example 64, N-(4-Hydroxyphenyl)-N-(1-isopropyl-2,3-dihydro-1H-indol-5-yl)-3-{6-[((3S)-3-(4-morpholinylmethyl)-3,4-dihydro-2(1H)-isoquinolinyl)carbonyl]-1,3-benzodioxol-5-yl}-1-indolizine carboxamide hydrochloride] are 31 nM and 23.3 nM.
For the molecule `CN1CCN(C[C@@H]2Cc3ccccc3CN2C(=O)c2ccc(Cl)cc2-c2cc(C(=O)N(c3ccc(O)cc3)c3ccc4c(ccn4C)c3)c3ccccn23)CC1` [Example 65, 3-{5-Chloro-2-[((3S)-3-[(4-methyl-1-piperazinyl)methyl]-3,4-dihydro-2(1H)-isoquinolinyl)carbonyl]phenyl}-N-(4-hydroxyphenyl)-N-(1-methyl-1H-indol-5-yl)-1-indolizine carboxamide bis(hydrochloride)], the values for the half-inhibitory concentration (IC50) (at Bcl-2 protein; in assay [1]) were 14 nM and 9.19 nM, respectively.
Regarding `CN1CCCc2cc(N(C(=O)c3cc(-c4cc5c(cc4C(=O)N4Cc6ccccc6C[C@H]4CN4CCOCC4)OCCO5)n4ccccc34)c3ccc(O)cc3)ccc21` [Example 69, N-(4-Hydroxyphenyl)-N-(1-methyl-1,2,3,4-tetrahydro-6-quinolinyl)-3-{7-[((3S)-3-(4-morpholinylmethyl)-3,4-dihydro-2(1H)-isoquinolinyl)carbonyl]-2,3-dihydro-1,4-benzodioxin-6-yl}-1-indolizine carboxamide hydrochloride], the IC50 at Bcl-2 protein was 26 nM; in assay [1] it was 16.7 nM.
For `Cn1ccc2cc(N(C(=O)c3cc(-c4cc5c(cc4C(=O)N4Cc6ccccc6C[C@H]4CN4CCOCC4)OCCO5)n4ccccc34)c3ccc(O)cc3)ccc21` [Example 70, N-(4-Hydroxyphenyl)-N-(1-methyl-1H-indol-5-yl)-3-{7-[((3S)-3-(4-morpholinylmethyl)-3,4-dihydro-2(1H)-isoquinolinyl)carbonyl]-2,3-dihydro-1,4-benzodioxin-6-yl}-1-indolizine carboxamide hydrochloride], the IC50 is 19 nM on Bcl-2 protein and 14 nM in assay [1].
As to `COc1ccc(C(=O)N2Cc3ccccc3C[C@H]2CN2CCOCC2)c(-c2cc(C(=O)N(c3ccc(O)cc3)c3ccc4c(ccn4C)c3)c3ccccn23)c1` [Example 71, N-(4-Hydroxyphenyl)-3-{5-methoxy-2-[((3S)-3-(4-morpholinylmethyl)-3,4-dihydro-2(1H)-isoquinolinyl)carbonyl]phenyl}-N-(1-methyl-1H-indol-5-yl)-1-indolizine carboxamide hydrochloride], the IC50 was determined as 21 nM on Bcl-2 protein and 24.4 nM in assay [1].
Take `Cn1ccc2cc(N(C(=O)c3cc(-c4cc5c(cc4C(=O)N4Cc6ccccc6C[C@H]4CN4CCOCC4)OCO5)n4c3CNCC4)c3ccc(O)cc3)ccc21` [Example 74, N-(4-Hydroxyphenyl)-N-(1-methyl-1H-indol-5-yl)-6-{6-[((3S)-3-(4-morpholinylmethyl)-3,4-dihydro-2(1H)-isoquinolinyl)carbonyl]-1,3-benzodioxol-5-yl}-1,2,3,4-tetrahydropyrrolo[1,2-a]pyrazine-8-carboxamide bis(hydrochloride)]: the IC50 on Bcl-2 protein was 24 nM; in assay [1], 241 nM.
Turning to `CN1CCN(C[C@@H]2Cc3ccccc3CN2C(=O)c2cc3c(cc2-c2cc(C(=O)N(c4ccc(O)cc4)c4ccc5c(ccn5C)c4)c4n2CCC4)OCO3)CC1` [Example 76, N-(4-Hydroxyphenyl)-N-(1-methyl-1H-indol-5-yl)-5-{6-[((3S)-3-[(4-methyl-1-piperazinyl)methyl]-3,4-dihydro-2(1H)-isoquinolinyl)carbonyl]-1,3-benzodioxol-5-yl}-2,3-dihydro-1H-pyrrolizine-7-carboxamide bis(hydrochloride)], the IC50 at Bcl-2 protein came to 17 nM; in assay [1], 49 nM.
For the molecule `CN1CCN(C[C@@H]2Cc3ccccc3CN2C(=O)c2ccc(Cl)cc2-c2cc(C(=O)N(c3ccc(O)cc3)c3ccc4c(ccn4C)c3)c3n2CCC3)CC1` [Example 77, 5-{5-Chloro-2-[((3S)-3-[(4-methyl-1-piperazinyl)methyl]-3,4-dihydro-2(1H)-isoquinolinyl)carbonyl]phenyl}-N-(4-hydroxyphenyl)-N-(1-methyl-1H-indol-5-yl)-2,3-dihydro-1H-pyrrolizine-7-carboxamide bis(hydrochloride)], the half-maximal inhibitory concentration (IC50) stood at 23 nM at Bcl-2 protein and 70.4 nM in assay [1].
On to `O=C(c1cc(-c2cc(Cl)ccc2C(=O)N2Cc3ccccc3C[C@H]2CN2CCOCC2)n2c1COCC2)N(c1ccc(O)cc1)c1ccc2c(c1)CCN2` [Example 79, 6-{5-Chloro-2-[((3S)-3-(4-morpholinylmethyl)-3,4-dihydro-2(1H)-isoquinolinyl)carbonyl]phenyl}-N-(2,3-dihydro-1H-indol-5-yl)-N-(4-hydroxyphenyl)-3,4-dihydro-1H-pyrrolo[2,1-c][1,4]oxazine-8-carboxamide bis(hydrochloride)], for which the concentration for half-maximal inhibition (IC50) on Bcl-2 protein amounted to 31 nM; in assay [1], 67.5 nM.

The record behind these values is patent US9120791B2, “Indolizine compounds, a process for their preparation and pharmaceutical compositions containing them” (LES LABORATOIRES SERVIER, priority 2012, dated 2015).
